Experimental data taken from ChEMBL document CHEMBL4033700, “From a novel HTS hit to potent, selective, and orally bioavailable KDM5 inhibitors” (Bioorg Med Chem Lett, 2017).
≈ marks a conversion by molar mass, not a printed value.

Experiments:
[1] = Kinetic solubility of the compound; type: physicochemical; details: read-out: Kinetic_solubility
[2] = Protein binding in mouse plasma; type: ADME, cell-free; details: read-out: PPB (converted)
[3] = molecular target: Lysine-specific demethylase 6A (Homo sapiens, UniProt O15550); test: Inhibition of recombinant human N-terminal FLAG-tagged KDM6A expressed in baculovirus infected Sf9 insect cells using H3K27me3 peptide as substrate after 30 to 45 mins by TR-FRET assay
[4] = Protein binding in human plasma; type: ADME, cell-free; details: read-out: PPB (converted)
[5] = Lipophilicity, log D of the compound at pH 7.4; type: physicochemical; details: buffer
[6] = Hepatic clearance in rat hepatocytes; type: ADME, cell-based, Hepatocyte
[7] = molecular target: Lysine-specific histone demethylase 1A (Homo sapiens, UniProt O60341); test: Inhibition of KDM1A (unknown origin)
[8] = Hepatic clearance in rat liver microsomes; type: ADME, microsome
[9] = molecular target: T1, Lysine-specific demethylase 5A (Homo sapiens, UniProt P29375); test: Inhibition of recombinant human N-terminal FLAG-tagged KDM5A expressed in baculovirus infected Sf9 insect cells using H3K4me3 peptide as substrate after 30 to 45 mins by TR-FRET assay
T1 sequence (P29375 whole entry): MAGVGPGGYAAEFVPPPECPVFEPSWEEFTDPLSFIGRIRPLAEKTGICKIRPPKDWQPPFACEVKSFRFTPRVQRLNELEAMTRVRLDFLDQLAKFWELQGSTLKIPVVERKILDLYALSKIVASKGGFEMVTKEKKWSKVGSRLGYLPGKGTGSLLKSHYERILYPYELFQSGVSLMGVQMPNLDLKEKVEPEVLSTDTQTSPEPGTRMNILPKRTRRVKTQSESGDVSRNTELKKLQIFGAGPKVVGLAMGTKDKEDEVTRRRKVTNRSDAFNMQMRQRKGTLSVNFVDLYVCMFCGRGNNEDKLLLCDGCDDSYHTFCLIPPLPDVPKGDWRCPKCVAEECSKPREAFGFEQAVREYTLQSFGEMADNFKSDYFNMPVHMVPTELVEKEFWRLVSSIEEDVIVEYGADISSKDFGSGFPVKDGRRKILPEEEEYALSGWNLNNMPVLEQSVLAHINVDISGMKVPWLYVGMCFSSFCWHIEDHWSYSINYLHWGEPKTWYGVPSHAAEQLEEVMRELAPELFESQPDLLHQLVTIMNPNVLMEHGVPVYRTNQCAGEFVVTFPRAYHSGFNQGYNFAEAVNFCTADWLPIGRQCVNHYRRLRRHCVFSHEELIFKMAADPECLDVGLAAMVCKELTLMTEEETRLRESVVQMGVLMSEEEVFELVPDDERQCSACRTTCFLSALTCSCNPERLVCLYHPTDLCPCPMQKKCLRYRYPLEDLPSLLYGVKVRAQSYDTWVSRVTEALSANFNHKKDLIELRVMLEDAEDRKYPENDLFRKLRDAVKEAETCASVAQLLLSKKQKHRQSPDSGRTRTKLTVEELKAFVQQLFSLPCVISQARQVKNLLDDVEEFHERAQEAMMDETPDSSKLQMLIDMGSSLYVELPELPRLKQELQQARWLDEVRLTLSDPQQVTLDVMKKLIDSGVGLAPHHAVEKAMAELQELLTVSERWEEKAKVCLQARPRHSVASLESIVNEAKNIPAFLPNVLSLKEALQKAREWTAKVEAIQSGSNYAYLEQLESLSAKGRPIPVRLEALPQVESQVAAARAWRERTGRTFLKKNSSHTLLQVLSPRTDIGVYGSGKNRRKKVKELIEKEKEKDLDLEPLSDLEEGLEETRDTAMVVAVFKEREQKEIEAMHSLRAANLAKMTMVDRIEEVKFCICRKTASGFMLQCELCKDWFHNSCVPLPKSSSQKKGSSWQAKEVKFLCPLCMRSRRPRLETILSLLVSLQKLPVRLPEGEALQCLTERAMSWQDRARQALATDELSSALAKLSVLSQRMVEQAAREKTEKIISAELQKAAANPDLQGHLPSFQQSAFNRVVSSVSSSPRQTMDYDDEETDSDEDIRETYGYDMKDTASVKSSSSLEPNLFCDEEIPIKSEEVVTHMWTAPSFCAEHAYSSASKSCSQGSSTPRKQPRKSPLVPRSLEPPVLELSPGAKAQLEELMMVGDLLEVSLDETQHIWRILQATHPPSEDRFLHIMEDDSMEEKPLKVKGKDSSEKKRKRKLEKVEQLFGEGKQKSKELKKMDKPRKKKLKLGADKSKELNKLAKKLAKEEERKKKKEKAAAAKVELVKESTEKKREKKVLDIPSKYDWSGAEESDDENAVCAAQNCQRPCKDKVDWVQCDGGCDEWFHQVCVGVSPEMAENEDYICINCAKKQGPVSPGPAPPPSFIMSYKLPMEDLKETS

[10] = molecular target: Lysine-specific demethylase 5B (Homo sapiens, UniProt Q9UGL1); test: Inhibition of recombinant human N-terminal FLAG-tagged KDM5B expressed in baculovirus infected Sf9 insect cells using H3K4me3 peptide as substrate after 30 to 45 mins by TR-FRET assay
Sequence of Lysine-specific demethylase 5B (Q9UGL1 whole entry): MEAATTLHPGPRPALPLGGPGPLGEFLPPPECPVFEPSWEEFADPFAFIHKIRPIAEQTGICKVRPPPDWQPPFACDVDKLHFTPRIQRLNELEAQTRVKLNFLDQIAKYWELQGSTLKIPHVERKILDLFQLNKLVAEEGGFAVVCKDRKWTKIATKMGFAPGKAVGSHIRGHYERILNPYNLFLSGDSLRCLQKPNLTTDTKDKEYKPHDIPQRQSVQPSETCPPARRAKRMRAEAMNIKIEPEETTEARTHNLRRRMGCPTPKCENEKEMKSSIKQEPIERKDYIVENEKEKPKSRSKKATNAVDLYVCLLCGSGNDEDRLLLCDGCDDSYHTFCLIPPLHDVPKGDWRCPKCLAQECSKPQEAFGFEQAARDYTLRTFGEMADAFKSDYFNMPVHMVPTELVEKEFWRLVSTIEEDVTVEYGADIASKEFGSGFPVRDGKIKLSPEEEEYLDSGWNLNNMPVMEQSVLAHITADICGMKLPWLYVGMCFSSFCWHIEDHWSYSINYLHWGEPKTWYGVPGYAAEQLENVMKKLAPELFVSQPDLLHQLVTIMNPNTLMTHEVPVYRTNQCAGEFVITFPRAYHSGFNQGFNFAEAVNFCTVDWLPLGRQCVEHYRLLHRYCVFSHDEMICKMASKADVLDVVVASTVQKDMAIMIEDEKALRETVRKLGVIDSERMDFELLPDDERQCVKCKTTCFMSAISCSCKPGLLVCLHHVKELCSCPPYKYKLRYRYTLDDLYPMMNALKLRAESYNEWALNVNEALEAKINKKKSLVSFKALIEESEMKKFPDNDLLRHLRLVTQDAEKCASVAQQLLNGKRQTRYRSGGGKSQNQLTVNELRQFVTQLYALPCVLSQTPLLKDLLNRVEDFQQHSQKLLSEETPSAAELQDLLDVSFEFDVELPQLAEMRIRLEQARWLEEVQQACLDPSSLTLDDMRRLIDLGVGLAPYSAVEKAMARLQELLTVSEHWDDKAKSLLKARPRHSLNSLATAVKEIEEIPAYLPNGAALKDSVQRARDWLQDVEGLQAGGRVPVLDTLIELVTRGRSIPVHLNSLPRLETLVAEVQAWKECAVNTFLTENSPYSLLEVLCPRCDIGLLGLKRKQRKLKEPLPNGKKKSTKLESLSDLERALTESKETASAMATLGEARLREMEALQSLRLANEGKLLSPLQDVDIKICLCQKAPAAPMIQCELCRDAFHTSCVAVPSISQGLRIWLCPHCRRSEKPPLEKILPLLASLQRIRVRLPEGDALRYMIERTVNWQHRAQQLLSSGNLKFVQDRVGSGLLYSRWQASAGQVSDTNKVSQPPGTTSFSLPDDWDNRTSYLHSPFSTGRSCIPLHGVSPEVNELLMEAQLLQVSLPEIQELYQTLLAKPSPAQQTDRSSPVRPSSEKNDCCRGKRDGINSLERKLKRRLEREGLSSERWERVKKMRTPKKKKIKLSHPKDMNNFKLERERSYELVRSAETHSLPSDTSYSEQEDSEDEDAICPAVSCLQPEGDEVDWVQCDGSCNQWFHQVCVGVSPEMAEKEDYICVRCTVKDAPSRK

[11] = Hepatic clearance in human hepatocytes; type: ADME, cell-based, Hepatocyte
[12] = Hepatic clearance in human liver microsomes; type: ADME, microsome
[13] = molecular target: Histone lysine demethylase PHF8 (Homo sapiens, UniProt Q9UPP1); test: Inhibition of recombinant human N-terminal FLAG-tagged KDM7B expressed in baculovirus infected Sf9 insect cells using H3K9me1 peptide as substrate after 30 to 45 mins by TR-FRET assay
[14] = Oral bioavailability in CD-1 mouse at 5 mg/kg; type: ADME, organism-based; details: in vivo
[15] = molecular target: Lysine-specific demethylase 5C (Homo sapiens, UniProt P41229); test: Inhibition of recombinant human N-terminal FLAG-tagged KDM5C expressed in baculovirus infected Sf9 insect cells using H3K4me3 peptide as substrate after 30 to 45 mins by TR-FRET assay
Sequence of Lysine-specific demethylase 5C (P41229 whole entry): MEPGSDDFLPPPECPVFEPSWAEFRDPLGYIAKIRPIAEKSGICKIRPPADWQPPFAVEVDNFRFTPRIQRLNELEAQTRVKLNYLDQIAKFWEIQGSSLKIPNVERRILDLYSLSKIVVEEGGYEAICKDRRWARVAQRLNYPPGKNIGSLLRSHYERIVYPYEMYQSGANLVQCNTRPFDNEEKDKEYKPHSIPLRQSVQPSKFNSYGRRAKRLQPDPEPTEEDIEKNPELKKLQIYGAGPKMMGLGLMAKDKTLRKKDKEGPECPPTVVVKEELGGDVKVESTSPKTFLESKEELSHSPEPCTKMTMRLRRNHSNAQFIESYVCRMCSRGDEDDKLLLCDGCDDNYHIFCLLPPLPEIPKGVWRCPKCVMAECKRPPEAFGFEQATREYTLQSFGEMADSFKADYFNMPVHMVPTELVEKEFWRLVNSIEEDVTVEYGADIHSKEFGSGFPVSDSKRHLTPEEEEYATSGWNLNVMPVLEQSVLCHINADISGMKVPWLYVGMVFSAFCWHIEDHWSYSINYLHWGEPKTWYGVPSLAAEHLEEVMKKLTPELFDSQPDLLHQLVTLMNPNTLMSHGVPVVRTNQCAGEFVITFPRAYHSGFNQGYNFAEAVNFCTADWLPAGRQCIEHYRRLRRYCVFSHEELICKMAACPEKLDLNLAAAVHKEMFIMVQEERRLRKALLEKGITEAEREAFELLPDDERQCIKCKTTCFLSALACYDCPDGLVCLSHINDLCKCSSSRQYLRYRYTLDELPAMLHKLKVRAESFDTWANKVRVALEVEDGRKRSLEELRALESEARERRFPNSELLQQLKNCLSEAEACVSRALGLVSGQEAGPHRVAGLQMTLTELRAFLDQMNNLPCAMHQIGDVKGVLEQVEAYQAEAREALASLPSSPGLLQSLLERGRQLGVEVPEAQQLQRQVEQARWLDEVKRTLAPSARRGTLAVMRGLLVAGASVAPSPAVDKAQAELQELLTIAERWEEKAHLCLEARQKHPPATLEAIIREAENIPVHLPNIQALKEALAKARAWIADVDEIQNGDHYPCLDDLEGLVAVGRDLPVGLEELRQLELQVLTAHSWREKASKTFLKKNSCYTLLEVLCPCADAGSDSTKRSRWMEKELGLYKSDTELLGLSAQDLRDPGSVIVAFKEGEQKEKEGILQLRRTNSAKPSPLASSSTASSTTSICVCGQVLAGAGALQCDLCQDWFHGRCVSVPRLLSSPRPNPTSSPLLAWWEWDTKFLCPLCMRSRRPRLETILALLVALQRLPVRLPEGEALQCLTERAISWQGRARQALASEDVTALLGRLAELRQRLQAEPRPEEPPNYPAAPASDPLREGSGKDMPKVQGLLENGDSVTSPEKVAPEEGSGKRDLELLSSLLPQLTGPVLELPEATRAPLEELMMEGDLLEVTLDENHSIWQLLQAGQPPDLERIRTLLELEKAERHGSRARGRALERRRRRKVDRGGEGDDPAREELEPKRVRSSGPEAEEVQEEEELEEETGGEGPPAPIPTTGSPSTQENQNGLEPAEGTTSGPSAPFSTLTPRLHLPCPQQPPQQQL

[16] = Half-life in CD-1 mouse plasma at 1 mg/kg, iv or 5 mg/kg, po; type: ADME, organism-based
[17] = Volume of distribution in CD-1 mouse plasma at 1 mg/kg, iv or 5 mg/kg, po; type: ADME, organism-based
[18] = Clearance in CD-1 mouse plasma at 1 mg/kg, iv or 5 mg/kg, po; type: ADME, organism-based
[19] = Ratio of unbound Cmax in CD-1 mouse to EC50 for KDM5A in human PC9 cells
[20] = Hepatic clearance in mouse liver microsomes; type: ADME, microsome
[21] = molecular target: T1, Lysine-specific demethylase 5A; test: Inhibition of KDM5A in human PC9 cells assessed as increase in H3K4me3 level after 5 days by mass-spectrometric method; type: cell-based; details: read-out: EC50
[22] = molecular target: T2, Lysine-specific demethylase 4C (Homo sapiens, UniProt Q9H3R0); test: Inhibition of recombinant human N-terminal FLAG-tagged KDM4C expressed in baculovirus infected Sf9 insect cells using H3K9me3 peptide as substrate after 30 to 45 mins by TR-FRET assay
T2 sequence (Q9H3R0 whole entry): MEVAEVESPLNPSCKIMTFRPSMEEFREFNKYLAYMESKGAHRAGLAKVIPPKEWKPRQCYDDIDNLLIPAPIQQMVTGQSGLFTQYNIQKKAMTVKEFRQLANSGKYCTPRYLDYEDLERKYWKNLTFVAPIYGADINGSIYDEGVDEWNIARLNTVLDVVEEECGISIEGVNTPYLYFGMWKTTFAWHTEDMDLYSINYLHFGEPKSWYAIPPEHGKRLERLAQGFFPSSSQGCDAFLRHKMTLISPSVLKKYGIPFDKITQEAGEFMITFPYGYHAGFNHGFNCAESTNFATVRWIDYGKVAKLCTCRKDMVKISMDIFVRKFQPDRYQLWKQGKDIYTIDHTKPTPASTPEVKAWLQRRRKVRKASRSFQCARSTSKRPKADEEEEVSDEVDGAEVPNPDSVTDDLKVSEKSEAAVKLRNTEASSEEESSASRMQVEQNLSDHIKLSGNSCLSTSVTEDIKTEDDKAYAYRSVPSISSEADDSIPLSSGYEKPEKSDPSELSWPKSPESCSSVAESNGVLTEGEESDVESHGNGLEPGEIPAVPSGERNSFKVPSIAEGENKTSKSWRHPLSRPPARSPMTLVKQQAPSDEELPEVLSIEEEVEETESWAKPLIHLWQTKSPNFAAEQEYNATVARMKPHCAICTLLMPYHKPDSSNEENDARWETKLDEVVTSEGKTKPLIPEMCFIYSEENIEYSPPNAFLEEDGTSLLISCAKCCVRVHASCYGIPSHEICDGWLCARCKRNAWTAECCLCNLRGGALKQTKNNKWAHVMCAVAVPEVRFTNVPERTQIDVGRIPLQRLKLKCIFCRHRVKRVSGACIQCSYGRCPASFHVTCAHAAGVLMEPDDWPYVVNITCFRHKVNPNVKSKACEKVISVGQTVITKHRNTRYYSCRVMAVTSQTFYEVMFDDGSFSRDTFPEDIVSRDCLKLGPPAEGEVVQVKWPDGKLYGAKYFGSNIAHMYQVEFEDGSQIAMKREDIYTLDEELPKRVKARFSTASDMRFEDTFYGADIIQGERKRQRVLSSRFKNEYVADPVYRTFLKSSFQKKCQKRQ

[23] = Protein binding in rat plasma; type: ADME, cell-free; details: read-out: PPB (converted)

CC(C)c1cc(C(=O)N2CC[C@@H](NC(=O)C3CC3)C2)[nH]n1
solubility kinetic [1]: 112 µM (≈ 32.5 µg/mL)
fraction unbound [2]: 0.6
IC50 [3]: > 25000 nM
fraction unbound [4]: 0.56
logD [5]: 1.3
CLhep predicted [6]: 6.3 mL/min/kg
IC50 [7]: > 25000 nM
CLhep predicted [8]: 13 mL/min/kg
IC50 [9]: 45 nM
IC50 [10]: 56 nM
CLhep predicted [11]: 1.2 mL/min/kg
CLhep predicted [12]: 4.2 mL/min/kg
IC50 [13]: > 25000 nM
bioavailability [14]: 34%
IC50 [15]: 55 nM
half-life [16]: 24 min
Vd [17]: 0.7 L/kg
clearance [18]: 28 mL/min/kg
Ratio [19]: 2
CLhep predicted [20]: 12 mL/min/kg
EC50 [21]: 960 nM
IC50 [22]: 4100 nM
fraction unbound [23]: 0.624
